From patent US20230295201A1 (Gilead Sciences, Inc., priority 2020, published 2023)
Where two headings read alike, the source gives them in different places.

Legend:
Type in all cases: cell-based
RSV strain A2 = experiment: RSV HEp-2 EC50 (infectious cytopathic cell protection assay); settings: HEp-2 cells, RSV A2, 4 days, read-out: RSV HEp-2 EC50
Summary of the method: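 Percent inhibition of RSV-induced cytopathic effect came from remaining cell viability (CellTiter-Glo luminescence) after 4 days at 37° C. Compounds in 3-fold serial dilutions were exposed to an infectious mix of titered A2 virus and HEp-2 cells at 50,000/ml, with 0% and 100% inhibition control standards.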

DENV2 replicon = experiment: DENV-2 Huh-7 Rep EC50 (replicon luminescence); settings: read-out: DENV-2 Huh-7 Rep EC50
Experimental: In 384 well plates (Greiner, Cat #781091), compounds were acoustically transferred at 200 nl per well in a 8 compound (4 replicates) or 40 compound dose response format (3 replicates). For all plates tested, Balapiravir, GS-5734 and NITD008 were included as positive inhibition controls alongside 0% inhibition, DMSO-only negative control wells. Following compound addition, Huh-7 cells containing the DENV2 replicon construct were harvested following standard cell culture procedures and were adjusted to a concentration of 1.25E5 cells/mL in cell culture media composed of cDMEM without genticin. 40 μL of the cell stock was then added to each well for a final cell density of 5,000 cells/well. Cell and compound mixtures were incubated at 37° C./5% CO2 for 48 hours. Prior to harvesting cells, EnduRen Live Cell Substrate (Promega, Cat #E6481) was prepared by suspending 3.4 mg into 100 uL of DMSO to generate a 60 mM stock solution. The stock solution was then diluted 1:200 in pre-warmed cDMEM and 10 uL of this diluted solution was added to each well of the 384 well plates. Plates were then centrifuged at 500 rpm briefly and were placed on a plate shaker for 2 min. Following mixing, plates were incubated at […] for 1.5 hours prior to measuring luminescence on an Envision luminometer.

HRV16 = HRV16 HELA EC50 (cytopathic effect in H1-HeLa cells)
Experimental: H1-HeLa cells, cultured in complete DMEM medium containing 10% heat-inactivated FBS and 1% Penicillin/Streptomycin, were seeded in 96 well plates at 3000 cells/well one day prior to compound dosing and infection. The antiviral activity of each compound was measured in triplicate. Compounds were added directly to the cell cultures in serial 3-fold dilutions using the HP300 digital dispenser (Hewlett Packard, Palo Alto, CA) immediately prior to infection. The plates were transferred to BSL-2 containment and the appropriate dilution of virus stock, previously determined by titration and prepared in cell culture media, was added to test plates containing cells and serially diluted compounds. Each plate included 6 wells of infected untreated cells and 6 wells of uninfected cells that served as 0% and 100% virus inhibition control, respectively. Following the infection, test plates were incubated for 96 h in a tissue culture incubator set to 33° C./5% CO2. Following incubation, the H1-HeLa cells were removed from incubation and allowed to equilibrate to 25° C. Cell viability was determined by removing 100 μL of culture medium and adding 100 μL of Cell-Titer Glo viability reagent. The mixtures were incubated on a shaker for 10 minutes at 25° C., and the luminescence signal was quantified on an Envision luminescence plate reader.

RSV A2 = experiment: RSV NHBE EC50 (RSV A2 antiviral assay in normal human bronchial epithelial cells); settings: NHBE cells, RSV A2, 4 days, read-out: RSV NHBE EC50
[1] = human respiratory syncytial virus, HEp-2, 96 h
[2] = Dengue virus, DENV2, Huh-7, 48 h, Huh-7 replicon cells, 48 hours
[3] = 96 h, H1-HeLa cells, 33° C., read-out: HRV16 HELA EC50
[4] = human respiratory syncytial virus, NHBE, 96 h
[5] = human respiratory syncytial virus, NHBE, in Homo sapiens, 96 h
[6] = H1-HeLa cells, 96 h, 33° C.; read-out: HRV16 HELA EC50
[7] = human respiratory syncytial virus, 96 h

SMILES	EC50 (RSV strain A2; [1]) [µM]	EC50 (DENV2 replicon; [2]) [µM]	EC50 (HRV16; [3]) [µM]	EC50 (RSV A2; [4]) [µM]	also measured
CC(C)[C@H](NP(=O)(OC[C@@]1(C#N)O[C@@H](c2ccc3c(N)ncnn23)[C@H](O)[C@@H]1O)Oc1ccccc1)C(=O)OC1CCCCC1 (stereo partly drawn) [Example 98, cyclohexyl ((((2R,3S,4R,5S)-5-(4-aminopyrrolo[2,1-f][1,2,4]triazin-7-yl)-2-cyano-3,4-dihydroxytetrahydrofuran-2-yl)methoxy)(phenoxy)phosphoryl)-L-valinate]	> 50	> 50	> 50	> 5	
C[C@H](NP(=O)(OC[C@@]1(C#N)O[C@@H](c2ccc3c(N)ncnn23)[C@H](O)[C@@H]1O)Oc1ccccc1)C(=O)OCC1COC1 (stereo partly drawn) [Example 49, oxetan-3-ylmethyl ((((2R,3S,4R,5S)-5-(4-aminopyrrolo[2,1-f][1,2,4]triazin-7-yl)-2-cyano-3,4-dihydroxytetrahydrofuran-2-yl)methoxy)(phenoxy)phosphoryl)-L-alaninate]	1.08	> 50	8.72	2.43	
C[C@H](NP(=O)(OC[C@@]1(C#N)O[C@@H](c2ccc3c(N)ncnn23)[C@H](O)[C@@H]1O)Oc1ccccc1)C(=O)OC1CCN(C)CC1 (stereo partly shown) [Example 150]	4.16	> 100	49.9		EC50 (RSV A2; [5]): > 5 µM
CCCCCCCC(=O)Nc1ncnn2c([C@@H]3O[C@](C#N)(CO[P@@](=O)(N[C@@H](C)C(=O)OC4CCCCC4)Oc4ccccc4)[C@@H](O)[C@H]3O)ccc12 [Example 212, Cyclohexyl ((S)-(((2R,3S,4R,5S)-2-cyano-3,4-dihydroxy-5-(4-octanamidopyrrolo[2,1-f][1,2,4]triazin-7-yl)tetrahydrofuran-2-yl)methoxy)(phenoxy)phosphoryl)-L-alaninate]	0.133	9.77	0.67	> 5	
C[C@H](NP(=O)(OC[C@@]1(C#N)O[C@@H](c2ccc3c(N)ncnn23)[C@H](O)[C@@H]1O)Oc1ccccc1)C(=O)O[C@H]1CC[C@H](C(F)(F)F)CC1 (stereo partly drawn) [Example 16, trans-4-(trifluoromethyl)cyclohexyl ((((2R,3S,4R,5S)-5-(4-aminopyrrolo[2,1-f][1,2,4]triazin-7-yl)-2-cyano-3,4-dihydroxytetrahydrofuran-2-yl)methoxy)(phenoxy)phosphoryl)-L-alaninate]	1.29	70.8	1.31	0.104	
C[C@@H](NP(=O)(OC[C@@]1(C#N)O[C@@H](c2ccc3c(N)ncnn23)[C@H](O)[C@@H]1O)Oc1ccccc1)C(=O)O[C@H]1CC[C@H](C(F)(F)F)CC1 (single isomer, unassigned) [Example 195]	2.59	> 100		0.678	EC50 (HRV16; [6]): 2.55 µM
CCCC(=O)Nc1ncnn2c([C@@H]3O[C@](C#N)(CO[P@@](=O)(N[C@@H](C)C(=O)OC4CCCCC4)Oc4ccccc4)[C@@H](O)[C@H]3O)ccc12 [Example 231, Cyclohexyl ((S)-(((2R,3S,4R,5S)-5-(4-butyramidopyrrolo[2,1-f][1,2,4]triazin-7-yl)-2-cyano-3,4-dihydroxytetrahydrofuran-2-yl)methoxy)(phenoxy)phosphoryl)-L-alaninate]	0.152	14.7	1.2	0.19	
COCCOc1ccc(OP(=O)(N[C@@H](C)C(=O)OC(C)C)OC[C@@]2(C#N)O[C@@H](c3ccc4c(N)ncnn34)[C@H](O)[C@@H]2O)cc1 (stereo partly shown) [Example 53]	2.36	> 50	15.5		EC50 (RSV A2; [5]): ≥ 5 µM
C[C@@H](NP(=O)(OC[C@@]1(C#N)O[C@@H](c2ccc3c(N)ncnn23)[C@H](O)[C@@H]1O)Oc1ccccc1)C(=O)OCC(C)(C)C (stereo partly drawn) [Example 102, (2R)-neopentyl 2-(((((2R,3S,4R,5S)-5-(4-aminopyrrolo[2,1-f][1,2,4]triazin-7-yl)-2-cyano-3,4-dihydroxytetrahydrofuran-2-yl)methoxy)(phenoxy)phosphoryl)amino)propanoate]	9.95	> 100	16.7	> 5	
CCCCCCCCCCCCCCCCCCOC(=O)[C@H](C)NP(=O)(OC[C@@]1(C#N)O[C@@H](c2ccc3c(N)ncnn23)[C@H](O)[C@@H]1O)Oc1ccccc1 (stereo partly drawn) [Example 193, octadecyl ((((2R,3S,4R,5S)-5-(4-aminopyrrolo[2,1-f][1,2,4]triazin-7-yl)-2-cyano-3,4-dihydroxytetrahydrofuran-2-yl)methoxy)(phenoxy)phosphoryl)-L-alaninate]	0.244	> 50	0.75	0.469	
CCC(CC)COC(=O)[C@H](CC)NP(=O)(N[C@@H](CC)C(=O)OCC(CC)CC)OC[C@@]1(C#N)O[C@@H](c2ccc3c(N)ncnn23)[C@H](O)[C@@H]1O [Example 220]					EC50 (RSV strain A2; [7]): 4.26 µM; EC50 (DENV2 replicon; Dengue virus, DENV2, Huh-7, 48 h): 29 µM; EC50 (HRV16; [6]): 10.6 µM; EC50 (RSV A2; [7]): 0.34 µM
C[C@H](NP(=O)(OC[C@@]1(C#N)O[C@@H](c2ccc3c(N)ncnn23)[C@H](O)[C@@H]1O)Oc1ccccc1)C(=O)OC1CCC(F)(F)CC1 (single isomer, unassigned) [Example 176]			0.547		EC50 (RSV strain A2): 0.161 µM; EC50 (DENV2 replicon; Huh-7 replicon cells, 48 hours): 28.6 µM; EC50 (RSV A2): 1.64 µM
C[C@H](NP(=O)(OC[C@@]1(C#N)O[C@@H](c2ccc3c(N)ncnn23)[C@H](O)[C@@H]1O)Oc1ccccc1)C(=O)O[C@H]1CCNC1 (stereo partly drawn) [Example 122, (2S)—(S)-pyrrolidin-3-yl 2-(((((2R,3S,4R,5S)-5-(4-aminopyrrolo[2,1-f][1,2,4]triazin-7-yl)-2-cyano-3,4-dihydroxytetrahydrofuran-2-yl)methoxy)(phenoxy)phosphoryl)amino)propanoate]	4.04	> 50	29.3	> 5	
CC(C)OC(=O)C1(NP(=O)(OC[C@@]2(C#N)O[C@@H](c3ccc4c(N)ncnn34)[C@H](O)[C@@H]2O)Oc2ccccc2)CCC1 (mixture of isomers) [Example 95, isopropyl 1-(((((2R,3S,4R,5S)-5-(4-aminopyrrolo[2,1-f][1,2,4]triazin-7-yl)-2-cyano-3,4-dihydroxytetrahydrofuran-2-yl)methoxy)(phenoxy)phosphoryl)amino)cyclobutanecarboxylate]	15.2	> 50	> 42.2	> 5	
COC(C)(C)COC(=O)[C@H](C)NP(=O)(OC[C@@]1(C#N)O[C@@H](c2ccc3c(N)ncnn23)[C@H](O)[C@@H]1O)Oc1ccccc1 (stereo partly drawn) [Example 164, 2-methoxy-2-methylpropyl ((((2R,3S,4R,5S)-5-(4-aminopyrrolo[2,1-f][1,2,4]triazin-7-yl)-2-cyano-3,4-dihydroxytetrahydrofuran-2-yl)methoxy)(phenoxy)phosphoryl)-L-alaninate]	1.22	> 50	4	0.724	
CC(C)(C)C(=O)OCCNP(=O)(OCC1(C#N)OC(c2ccc3c(N)ncnn23)C(O)C1O)Oc1ccccc1 (single isomer, unassigned) [Example 12]					EC50 (RSV strain A2): 0.244 µM; EC50 (DENV2 replicon; Huh-7 replicon cells, 48 hours): > 50 µM; EC50 (HRV16; [6]): 1.93 µM; EC50 (RSV A2): 0.029 µM
